Results: patent US20230192700A1, “PYRAZOLOPYRAZINES ACTING ON CANCERS VIA INHIBITION OF CDK12” (Bayer Aktiengesellschaft, priority 2020, published 2023)
Read-outs that look alike come from different tables or passages of the source.

Tests used:
Format in all cases: cell-based
[1] = system: MDA-MB-231 human breast cancer cells; assay: Proliferation assay MDA-MB-231 (crystal violet); settings: MDA-MB-231 cells, 4 days, median, read-out: Prolif-MDA MB231 IC50 - [mol/l] (median)
Experimental: (§1) 4. Proliferation assay: MDA-MB-231, CAL-120
(§2) Human tumour cells were originally obtained from the American Type Culture Collection (ATCC), or from the Deutsche Sammlung von Mikroorganismen and Zellkulturen (DSMZ, German Collection of Microorganisms and Cell Cultures). Cultivated tumour cells (CAL-120, human breast adenocarcinoma cells, DSMZ ACC-459; MDA-M B-231, human breast cancer cells, ATCC HTB-26) were plated at a density of 4,000 cells/well in a 96-well multititer plate in 200 microL of their respective growth medium supplemented 10% fetal calf serum. After 24 hours, the cells of one plate (zero-point plate) were stained with crystal violet (see below), while the medium of the other plates was supplemented with the test substances in various concentrations (0 micromol/L, as well as in the range of 0.01-10 micromol/L; the final concentration of the solvent dimethyl sulfoxide was adjusted to 0.1%) using a Tecan HP D300 Digital Dispenser. The cells were incubated for 4 days in the presence of test substances. Cell proliferation was determined by staining the cells with crystal violet: the cells were fixed by adding 20 microL/measuring point of an 11% glutaric aldehyde solution for 15 minutes at room temperature. After three washing cycles of the fixed cells with water, the plates were dried at room temperature. The cells were stained by adding 100 microL/measuring point of a 0.1% crystal violet solution (pH 3.0). After three washing cycles of the stained cells with water, the plates were dried at room temperature. The dye was dissolved by adding 100 microL/measuring point of a 10% acetic acid solution. The extinction was determined by photometry at a wavelength of 595 nm. The change of cell number, in percent, was calculated by normalization of the measured values to the extinction values of the zero-point plate(=0%) and the extinction of the untreated (0 μM) cells(=100%). The IC50 values (inhibitory concentration at 50% of maximal effect) were determined by means of a 4 parameter fit.

[2] = system: CAL-120 human breast adenocarcinoma cells; assay: Proliferation assay CAL-120 (crystal violet); settings: CAL-120 cells, 4 days, median, read-out: Prolif-CAL-120— IC50 - [mol/l] (median)
Experimental: as §1, §2

[3] = molecular target: T1, CYCLIN K (Homo sapiens, UniProt O75909); assay: CYCLIN K nuclear protein level: immunofluorescence/high content analysis in CAL-120 cells; settings: 24 h, nuclear CCNK staining intensity, median, read-out: CYCLIN K degradation IF, DC50- [mol/l] (median)
T1 construct: endogenous in cells; host or cells: CAL-120 human breast cancer cells (DSMZ ACC 459)
T1 sequence (O75909 whole entry): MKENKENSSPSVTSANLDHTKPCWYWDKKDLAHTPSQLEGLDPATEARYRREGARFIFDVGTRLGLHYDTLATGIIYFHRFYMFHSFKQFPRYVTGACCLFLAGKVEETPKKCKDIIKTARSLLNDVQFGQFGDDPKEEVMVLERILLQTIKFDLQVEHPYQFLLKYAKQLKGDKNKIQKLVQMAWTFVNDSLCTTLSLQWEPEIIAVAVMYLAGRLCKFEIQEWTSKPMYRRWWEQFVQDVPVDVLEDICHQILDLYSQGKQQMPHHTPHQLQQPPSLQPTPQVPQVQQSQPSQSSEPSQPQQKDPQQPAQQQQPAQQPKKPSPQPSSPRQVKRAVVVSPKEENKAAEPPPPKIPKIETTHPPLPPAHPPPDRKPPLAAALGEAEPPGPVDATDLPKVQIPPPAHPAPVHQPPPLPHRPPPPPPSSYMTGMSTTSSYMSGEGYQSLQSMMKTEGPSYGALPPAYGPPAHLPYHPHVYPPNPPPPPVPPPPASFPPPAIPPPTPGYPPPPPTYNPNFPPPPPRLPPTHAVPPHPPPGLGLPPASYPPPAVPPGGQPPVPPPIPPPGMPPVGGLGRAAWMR
T1 sequence (Q9NYV4 whole entry partner): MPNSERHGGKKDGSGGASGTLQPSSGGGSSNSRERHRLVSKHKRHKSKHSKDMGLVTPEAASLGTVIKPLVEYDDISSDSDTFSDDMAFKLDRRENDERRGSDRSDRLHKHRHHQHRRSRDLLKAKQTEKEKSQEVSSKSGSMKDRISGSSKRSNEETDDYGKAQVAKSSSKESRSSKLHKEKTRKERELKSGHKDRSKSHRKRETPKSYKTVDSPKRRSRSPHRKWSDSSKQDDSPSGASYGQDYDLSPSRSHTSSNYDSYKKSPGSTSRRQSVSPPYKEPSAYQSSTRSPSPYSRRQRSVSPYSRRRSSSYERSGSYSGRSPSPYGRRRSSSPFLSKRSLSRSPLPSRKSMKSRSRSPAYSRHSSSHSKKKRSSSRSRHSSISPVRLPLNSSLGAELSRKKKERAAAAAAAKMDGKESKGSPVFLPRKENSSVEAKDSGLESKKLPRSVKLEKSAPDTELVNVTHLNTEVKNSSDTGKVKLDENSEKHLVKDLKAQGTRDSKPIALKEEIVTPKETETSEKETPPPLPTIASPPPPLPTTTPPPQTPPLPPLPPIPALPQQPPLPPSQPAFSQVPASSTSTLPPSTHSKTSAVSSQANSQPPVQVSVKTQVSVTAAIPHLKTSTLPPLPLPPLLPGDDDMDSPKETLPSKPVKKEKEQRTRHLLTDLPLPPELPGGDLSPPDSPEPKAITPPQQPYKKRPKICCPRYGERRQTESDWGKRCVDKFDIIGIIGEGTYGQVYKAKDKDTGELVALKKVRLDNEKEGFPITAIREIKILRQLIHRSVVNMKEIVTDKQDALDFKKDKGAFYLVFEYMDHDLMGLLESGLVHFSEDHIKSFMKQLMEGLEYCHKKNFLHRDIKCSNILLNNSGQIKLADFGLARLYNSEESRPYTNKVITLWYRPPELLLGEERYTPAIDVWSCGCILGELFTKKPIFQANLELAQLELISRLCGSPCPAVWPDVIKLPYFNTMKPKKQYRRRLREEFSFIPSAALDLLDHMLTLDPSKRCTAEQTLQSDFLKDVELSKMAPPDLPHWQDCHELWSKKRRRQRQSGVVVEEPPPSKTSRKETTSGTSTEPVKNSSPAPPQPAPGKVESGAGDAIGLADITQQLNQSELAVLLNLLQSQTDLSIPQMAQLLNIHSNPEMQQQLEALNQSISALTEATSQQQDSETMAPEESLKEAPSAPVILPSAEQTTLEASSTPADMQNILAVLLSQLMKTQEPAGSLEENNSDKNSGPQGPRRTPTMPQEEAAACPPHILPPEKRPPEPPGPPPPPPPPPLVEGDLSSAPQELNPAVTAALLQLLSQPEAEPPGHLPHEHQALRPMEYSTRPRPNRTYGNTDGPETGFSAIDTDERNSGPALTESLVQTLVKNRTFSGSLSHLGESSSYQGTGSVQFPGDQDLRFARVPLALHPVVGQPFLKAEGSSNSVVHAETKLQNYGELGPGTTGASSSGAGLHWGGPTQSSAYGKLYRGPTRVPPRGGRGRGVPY
Experimental: 7. CYCLIN K Nuclear Protein Level: Immunofluorescence/High Content Analysis
In the context of the present invention, the term “DC50 Cyclin K” refers to the DC50 values obtained according to the assay described in this section (7) herein below, i.e. the DC50 values for the degradation of Cyclin K.
CAL-120 human breast cancer cells (DSMZ ACC 459) are seeded in 1536-well microtiter plates (800 cells per well) containing 50 nanoL of compounds in Dose-Response. Control wells received DMSO or Reference Example 1. Plates are then incubated for 24 h at 37° C. in an humidified incubator and fixed with 4% PFA for 10 min. Then immunofluorescence (IF) against CYCLIN K (ThermoFisher Scientific CCNK Antibody # PA5-85020, rabbit, 1:200 dilution) is performed using standard IF protocols. Cells are then stained with Hoechst 33342 (Life Technologies, H-1399, 0.1 microg/mL) and imaged on an automated confocal microscopy system (e.g. Perkin Elmer Opera Phenix). Nuclear and cytoplasmic intensity as well as the nuclear/cytoplasmic intensity ratio is determined by automated image analysis using custom generated scripts (MetaXpress). Data is then transferred to Genedata Screener software, normalized to DMSO and control and DC50 values (degrading concentration to achieve 50% reduction of nuclear CCNK staining intensity relative to controls) are reported.

| IC50 ([1]; Homo sapiens, MDA-MB-231, 96 h) | IC50 ([2]; Homo sapiens, CAL-120, 96 h) | DC50 [3] | IC50 [1] | IC50 [2] | Compound |
| --- | --- | --- | --- | --- | --- |
| 3000 nM | 1040 nM | 118 nM |  |  | Cc1cnc2c(NCc3nc4ccccc4[nH]3)nn(C3CCN(C)CC3)c2n1 [Example 77, N-[(1H-benzimidazol-2-yl)methyl]-6-methyl-1-(1-methylpiperidin-4-yl)-1H-pyrazolo[3,4-b]pyrazin-3-amine] |
| 386 nM | 160 nM | 20.3 nM |  |  | OCCn1nc(NCc2nc3ccccc3[nH]2)c2ncc(C3CC3)nc21 [Example 66, 2-(3-{[(1H-benzimidazol-2-yl)methyl]amino}-6-cyclopropyl-1H-pyrazolo[3,4-b]pyrazin-1-yl)ethan-1-ol] |
| 66.1 nM | 42.5 nM | 11.3 nM |  |  | CC(C)(O)C1CC(n2nc(NCc3nc4ccccc4[nH]3)c3ncc(C4CC4)nc32)C1 (mixture of isomers) [Example 48, 2-[cis/trans-3-(3-{[(1H-benzimidazol-2-yl)methyl]amino}-6-cyclopropyl-1H-pyrazolo[3,4-b]pyrazin-1-yl)cyclobutyl]propan-2-ol] |
| 62.2 nM | 41.9 nM | 4.79 nM |  |  | O[C@H]1C[C@H](n2nc(NCc3nc4ccccc4[nH]3)c3ncc(C4CC4)nc32)C1 [Example 43, trans-3-(3-{[(1H-benzimidazol-2-yl)methyl]amino}-6-cyclopropyl-1H-pyrazolo[3,4-b]pyrazin-1-yl)cyclobutan-1-ol] |
| 50.8 nM | 27.5 nM | 6.29 nM |  |  | OC[C@H]1C[C@@H](n2nc(NCc3nc4ccccc4[nH]3)c3ncc(C4CC4)nc32)C1 [Example 47, [cis-3-(3-{[(1H-benzimidazol-2-yl)methyl]amino}-6-cyclopropyl-1H-pyrazolo[3,4-b]pyrazin-1-yl)cyclobutyl]methanol] |
| 268 nM | 79.7 nM | 15.6 nM |  |  | COC(C)(C)CCn1nc(NCc2nc3ccccc3[nH]2)c2ncc(C3CC3)nc21 [Example 67, N-[(1H-benzimidazol-2-yl)methyl]-6-cyclopropyl-1-(3-methoxy-3-methylbutyl)-1H-pyrazolo[3,4-b]pyrazin-3-amine] |
| 24.9 nM | 32.8 nM | 7.1 nM |  |  | CN1CCC(n2nc(NCc3nc4ccccc4[nH]3)c3ncc(C4CC4)nc32)CC1 [Example 1, N-[(1H-benzimidazol-2-yl)methyl]-6-cyclopropyl-1-(1-methylpiperidin-4-yl)-1H-pyrazolo[3,4-b]pyrazin-3-amine] |
|  |  | 1.28 nM |  |  | O[C@H]1CC[C@H](n2nc(NCc3nc4cc(F)ccc4[nH]3)c3ncc(C4CC4)nc32)CC1 [Example 56, trans-4-(6-cyclopropyl-3-{[(5-fluoro-1H-benzimidazol-2-yl)methyl]amino}-1H-pyrazolo[3,4-b]pyrazin-1-yl)cyclohexan-1-ol] |
| 47.2 nM | 20.1 nM | 4.87 nM |  |  | OC[C@H]1C[C@H](n2nc(NCc3nc4ccccc4[nH]3)c3ncc(C4CC4)nc32)C1 [Example 46, [trans-3-(3-{[(1H-benzimidazol-2-yl)methyl]amino}-6-cyclopropyl-1H-pyrazolo[3,4-b]pyrazin-1-yl)cyclobutyl]methanol] |
|  |  | 4.46 nM |  |  | O[C@H]1CC[C@@H](n2nc(NCc3nc4ccccc4[nH]3)c3ncc(C4CC4)nc32)CC1 [Example 51, cis-4-(3-{[(1H-benzimidazol-2-yl)methyl]amino}-6-cyclopropyl-1H-pyrazolo[3,4-b]pyrazin-1-yl)cyclohexan-1-ol] |
| 38.3 nM | 6.49 nM | 2.16 nM |  |  | c1ccc2[nH]c(CNc3nn(C4CCNCC4)c4nc(C5CC5)cnc34)nc2c1 [Example 12, N-[(1H-benzimidazol-2-yl)methyl]-6-cyclopropyl-1-(piperidin-4-yl)-1H-pyrazolo[3,4-b]pyrazin-3-amine] |
| 39.6 nM | 14.2 nM | 6.22 nM |  |  | Cc1cccc2[nH]c(CNc3nn(C4CCN(C)CC4)c4nc(C5CC5)cnc34)nc12 [Example 8, 6-cyclopropyl-N-[(4-methyl-1H-benzimidazol-2-yl)methyl]-1-(1-methylpiperidin-4-yl)-1H-pyrazolo[3,4-b]pyrazin-3-amine] |
|  |  | 0.263 nM |  |  | Cc1ccc2[nH]c(CNc3nn(C4CCN(C)CC4)c4nc(C5CC5)cnc34)nc2c1 [Example 6, 6-cyclopropyl-N-[(5-methyl-1H-benzimidazol-2-yl)methyl]-1-(1-methylpiperidin-4-yl)-1H-pyrazolo[3,4-b]pyrazin-3-amine] |
| 83.9 nM | 34.6 nM | 5.35 nM |  |  | O[C@H]1C[C@@H](n2nc(NCc3nc4ccccc4[nH]3)c3ncc(C4CC4)nc32)C1 [Example 40, cis-3-(3-{[(1H-benzimidazol-2-yl)methyl]amino}-6-cyclopropyl-1H-pyrazolo[3,4-b]pyrazin-1-yl)cyclobutan-1-ol] |
|  |  | 38.6 nM | 816 nM | 440 nM | COCCC(C)n1nc(NCc2nc3ccccc3[nH]2)c2ncc(C3CC3)nc21 (single isomer, unassigned; (+)) [Example 59, (+)-N-[(1H-benzimidazol-2-yl)methyl]-6-cyclopropyl-1-[4-methoxybutan-2-yl]-1H-pyrazolo[3,4-b]pyrazin-3-amine] |
| 168 nM |  | 3.11 nM |  |  | O=CO.c1ccc(-n2nc(NCc3nc4ccccc4[nH]3)c3ncc(C4CC4)nc32)cc1 [Example 13, formic acid—N-[(1H-benzimidazol-2-yl)methyl]-6-cyclopropyl-1-phenyl-1H-pyrazolo[3,4-b]pyrazin-3-amine (1/1)] |
|  |  | 92.6 nM |  |  | CC1(C)CC(n2nc(NCc3nc4ccccc4[nH]3)c3ncc(C4CC4)nc32)CC(C)(C)O1 [Example 52, N-[(1H-benzimidazol-2-yl)methyl]-6-cyclopropyl-1-(2,2,6,6-tetramethyloxan-4-yl)-1H-pyrazolo[3,4-b]pyrazin-3-amine] |
| 28.6 nM | 15.4 nM |  |  |  | Fc1cccc2[nH]c(CNc3nn(C4CCOCC4)c4nc(C5CC5)cnc34)nc12 [Example 23, 6-cyclopropyl-N-[(4-fluoro-1H-benzimidazol-2-yl)methyl]-1-(oxan-4-yl)-1H-pyrazolo[3,4-b]pyrazin-3-amine] |
|  |  | 12.5 nM |  |  | c1ccc2[nH]c(CNc3nn(C4COC4)c4nc(C5CC5)cnc34)nc2c1 [Example 55, N-[(1H-benzimidazol-2-yl)methyl]-6-cyclopropyl-1-(oxetan-3-yl)-1H-pyrazolo[3,4-b]pyrazin-3-amine] |
| 38.8 nM | 7.7 nM |  |  |  | CN1CCCC(n2nc(NCc3nc4ccccc4[nH]3)c3ncc(C4CC4)nc32)CC1 (racemic) [Example 34, (±)-N-[(1H-benzimidazol-2-yl)methyl]-6-cyclopropyl-1-(1-methylazepan-4-yl)-1H-pyrazolo[3,4-b]pyrazin-3-amine] |
|  |  | 3.31 nM |  |  | c1ccc2[nH]c(CNc3nn(C4CC5(COC5)C4)c4nc(C5CC5)cnc34)nc2c1 [Example 54, N-[(1H-benzimidazol-2-yl)methyl]-6-cyclopropyl-1-(2-oxaspiro[3.3]heptan-6-yl)-1H-pyrazolo[3,4-b]pyrazin-3-amine] |
| 241 nM | 105 nM |  |  |  | COCCC(C)n1nc(NCc2nc3ccccc3[nH]2)c2ncc(C3CC3)nc21 (racemic) [Example 57, (±)-N-[(1H-benzimidazol-2-yl)methyl]-6-cyclopropyl-1-(4-methoxybutan-2-yl)-1H-pyrazolo[3,4-b]pyrazin-3-amine] |
